Here are results for 1 compound from patent US20260207551A1, “PHOSPHOGLICERATE DEHYDROGENASE INHIBITORS FOR THE TREATMENT OF FIBROSIS” (CHIESI FARMACEUTICI S.P.A., priority 2022, published 2026).

One assay has as its system αSMA. Kind of assay: Phenotypic assay: high content aSMA staining in NHLF cells. In kind it is cell-based, Human. The conditions noted are these: NHLF, 72 h incubation. Here is the method: NHLF cells (Lonza #CC2512) were seeded as 2000 cells/well in 384-well plates in MEM medium w/o serine and glycine (Sigma #M2279)+1% pen/strep+5 mM L-glutamine +10% FBS and incubated overnight at 37° C., 5% CO2.
The next day, cells were washed with PBS and starvation MEM medium w/o serine and glycine (0% FBS) was added and cells were incubated overnight at 37° C., 5% CO2. The day after, cells were pre-incubated with compounds or vehicle (0.3% DMSO) for 1 h. Compounds were tested at 9 consecutive 3-fold dilutions starting from 30 μM. Each compound was tested in duplicate. Cells were further incubated for 72 h at 37° C., 5% CO2, 95% humidity. After 72 h of incubation, αSMA expression was quantified using immunostaining: • Fixation in 4% paraformaldehyde, • Blocking with 3% BSA, 2% FBS, 0.2% Triton-X in PBS, • Primary ab. anti-αSMA (AbCam #ab7817) diluted 500× in blocking buffer • Anti-mouse secondary ab. AF488 (ThermoFisher #A11029) • % of αSMA positive cells was determined by High Content Imaging (Molecular Device), data analysis was performed using MetaXpress software (Molecular Devices) and % of αSMA positive was further used to calculate % of inhibition for tested compounds. Total cell number was determined by Hoechst staining and % of viability over TGFβ stimulated controls was calculated.

Another assay has as its system synthesis of 13C3-serine. The assay can be described thus: PK/PD model: in vivo [13C6] glucose tracing, inhibition of 13C3-serine synthesis. Also noted: species or system mouse male (C57BL/6J). To be noted: 1 h; for decrease of brain serine concentration: not statistically significant. The protocol:
As PHGDH catalyzes the rate-limiting step of glucose-derived serine synthesis, a pharmacokinetic/pharmacodynamic (PK/PD) experiment aimed to assess the inhibition of the synthesis of ^13C3-serine after oral administration of ^13C6-glucose was performed in mouse male (C57BL/6J).
Animals were fasted overnight before treatment. Following 0.5 h from administration of either Compound 19 at dose of 300 mg/kg or vehicle (0.5% Tween 80, 0.5% Methylcellulose in H2O), ^13C6-glucose was administered by oral gavage (2 g/kg, Merck Life Science Srl). Blood, lung, and brain samples were collected at 1 h, 6.5 h and 24.5 h after treatment with Compound 19 or vehicle.
The tissue concentration of ^13C3-serine was determined by a liquid chromatography-tandem mass spectrometry (LC/MS/MS) assay. GraphPad Prism (version 8.1.2) was used for drawing graphs and for statistical analysis. Plasma or tissue homogenate samples (tissues were homogenized with a water/acetonitrile 50/50 mixture) were extracted with 3 volumes of acetonitrile. Supernanatant was injected into HPLC system (Agilent 1260 Quaternary Pump equipped with an Agilent 1200 High Performance Autosampler SL; Agilent), using a Kinetex EVO C18 analytical column (100 A, 50×2.1 mm, 2.6 μm; Phenomenex) for the analysis of Compound 19 or an InfinityLab Poroshell 120 Hilic-Z (50×2.1 mm 2.7 μm; Agilent) for the analysis of ^13C3-serine. The mobile phases consisted of 0.1% formic acid in water (solvent A) and 0.1% formic acid in acetonitrile (solvent B); chromatographic separation was performed with gradient elution method (see conditions below): • Compound 19 (0.0-0.5 min, 10% B; 0.5-3.0 min, gradient to 90% B; 3.0-5.0 min. 90% B; 5.0-6.0 min, gradient to 10% B; 6.0-10.0 min, 10% B—flow rate: 0.4 mL/min). • S^13C3-serine (0.0-0.5 min, 95% B; 0.5-4.0 min, gradient to 60% B; 4.0-5.0 min, 60% B; 5.0-6.0 min, gradient to 95% B; 6.0-10.0 min, 95% B—flow rate: 0.4 mL/min).
Mass spectrometric analysis was performed on a linear ion trap triple quadrupole mass spectrometer (4000 Q TRAP; AB SCIEX) equipped with a turbo spray ion source; mass spectrometer was operated in positive ion mode and quantification was achieved by multiple reaction monitoring (MRM) mode. Peak integration was performed using Analyst (version 1.6.2.). GraphPad Prism (version 8.1.2) was used for drawing graphs and for statistical analysis.
After 0.5 h from administration of Compound 19a at dose of 3, 10, 30, 100 and 300 mg/kg po, Compound 19 at dose of 300 mg/kg po or vehicle po (0.5% Tween 80, 0.5% Methylcellulose in H2O), mice received ^13C6-glucose by oral gavage (2 g/kg, Merck Life Science Srl). […] Blood was withdrawn by cardiac puncture and collected in heparin tubes.

Assay [1] relates to bleomycin-induced pulmonary fibrosis. The assay can be described thus: Bleomycin-induced pulmonary fibrosis in male mice (Example 6). In kind it is in vivo, Male C57BL6/J mice. Here is the method:
The effect of Compound 19a was evaluated in a murine model (C57BL/6J mouse strain) in which fibrosis was induced by a double oropharyngeal (OA) instillation of bleomycin. The Compound 19a was administered under therapeutic regimen for 14 days, starting the treatments at day 7 from the first instillation of Bleomycin OA up to the day 21, considered the endpoint for this model.
All mice were maintained under pathogen-free conditions and had free access to food and water.
Lung injury was induced by double OA instillation of bleomycin hydrochloride (BLM, BAXTER, Deerfield, IL, USA) at day 0 and day 4 at the dose of 0.03 U/mouse in […] of saline solution (NaCl 0.9%). Control animals received double OA instillation of […] of saline solution.
The Compound 19a was orally administered twice daily at the three doses of 3, 30 and 100 mg/Kg 10 mL/Kg, using as vehicle for dissolution the 0.5% Tween 80, 0.5% Methylcellulose in H2O.
On day 21, the respiratory system mechanics were measured using the FlexiVent System (SCIREQ Inc., Montreal Qc, Canada) (Vanoirbeek et al., 2010).
Briefly, mice were anesthetized by intraperitoneal injection of ketamine (Anesketin®, Dechra Inc., Handelsweg, NL) and xylazine (Xilagesic®, Calier Inc., Barcelona, ES) solution (100 mg/Kg and 10 mg/Kg, respectively). Once anesthesia was achieved, to analyze forced vital capacity (FVC), anesthetized mice were tracheotomized using an 18-gauge metal cannula, connected via an endotracheal cannula to the FlexiVent and ventilated at a respiratory rate of 150 breaths/min and tidal volume of 10 mL/Kg against a positive end-expiratory pressure of 3 cm H2O to achieve a mean lung volume close to that during spontaneous breathing. To prevent spontaneous breathing mice also received pancuronium bromide at 1 mg/Kg intraperitoneally. FlexiVent software version 8.1 was used to perform the perturbations.
Immediately after the in-life evaluation, plasma and bronchoalveolar lavage fluid (BALF) samples were collected.
First, blood was collected by cardiac puncture, and plasma was obtained after centrifugation of blood at 2000×g and 4° C. for 10 minutes.
Subsequently, the lungs were gently rinsed three times using a tracheal cannula with 0.6 mL of clear BAL solution. The obtained BALF was centrifuged at 1000×g and 4° C. for 10 minutes. The cell-free supernatant was used for biomarkers quantitative determination.
The following biomarkers were determined in BALF and plasma samples by commercially available ELISA kits: Collagen I (evaluated in BALF), an index of collagen accumulation; matrix metallopeptidase 7 (MMP-7, evaluated in BALF), indicator of aberrant fibrogenesis and ECM remodeling and surfactant protein D (SP-D, evaluated in PLASMA), marker of alveolar epithelial cell damage and dysfunction.
Lastly, the entire lungs were resected, fixed with formalin and embedded in paraffin. Sections were stained with Masson's trichrome to assess the grade and severity of fibrosis and collagen deposition.

For a further assay, the system named is Collagen I. Kind of assay: Fibroblast to myofibroblast transition (FMT) in vitro assay: Collagen I detection. The class given is cell-based. To be noted: Homo sapiens, NHLF, 72 h, read-out: Collagen-I pIC50 (converted).
Setting [2] is: Compound 19a 100 mg/Kg bid, Nintedanib esylate 50 mg/Kg bid.

As to `CC(C)C(C(=O)O)c1ccc(C2(NC(=O)c3cc4c(Cl)c(Cl)ccc4n3C)CCOC2)cc1` (racemic) [Compound 19a, Diasteroisomer 2 of (±)-2-(4-(3-(4,5-Dichloro-1-methyl-1H-indole-2-carboxamido)tetrahydro-furan-3-yl)phenyl)-3-methylbutanoic acid], the “aSMA pIC50” value with αSMA was determined as 6.6. Also, the “decrease of brain serine concentration” value in the assay on synthesis of 13C3-serine (100 mg/kg po) turned out to be 12%. Further, in the assay with synthesis of 13C3-serine (300 mg/kg po), the “decrease of brain serine concentration” value came to 30%. Further, the “ED80 (inhibition of labelled serine)” value in the assay on synthesis of 13C3-serine (plasma and lung, both tissues, po, estimated) is “around 30 mg/kg”. Also, the “fibrotic tissue quantification by automated analysis (FIG. 19B)” value in assay [1] (100 mg/Kg) is reported as “effect comparable to Nintedanib”. Also, in assay [1] (setting [2]), the “reduction of Collagen I in BALF” value was determined as 52%, the “reduction of MMP-7 in BALF” value is reported as more than 100% and the “reduction of SP-D levels in plasma” value is 74%. In addition, the “improvement of FVC decline” value in assay [1] (Compound 19a 100 mg/kg bid, Nintedanib esylate 50 mg/Kg bid, vs BLM/vehicle) is listed as 77%. Besides, the “reduction of Ashcroft score” value in assay [1] (day 21, dose not stated) came out at 56%. In the assay with Collagen I, the IC50 was 126 nM.
